What follows are compounds tested against TNFα (Homo sapiens, UniProt P01375) (assay: TNF induced HEK-Blue assay (NF-kB-driven secreted alkaline phosphatase reporter)). Settings: TNFα 0.5 ng/mL, HEK-Blue-CD40L cells, 18 h; read-out: TNF induced HEK-Blue assay IC50 value.
TNFα, sequence (P01375 77-233 limits assumed): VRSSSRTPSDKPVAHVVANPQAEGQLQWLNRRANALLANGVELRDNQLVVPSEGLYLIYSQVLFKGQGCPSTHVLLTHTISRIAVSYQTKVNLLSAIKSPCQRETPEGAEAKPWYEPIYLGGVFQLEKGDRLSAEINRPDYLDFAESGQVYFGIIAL
Format: cell-based
Summary of the method: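 HEK-Blue-CD40L cells (NF-kB-driven SEAP reporter), 20,000/well, added after 30 min pre-incubation of compound (0.004–25 μM final) with TNFα 0.5 ng/mL final at 37 °C; 18 h incubation. SEAP read with QUANTI-Blue at 620 nm; IC50 from 4-parameter logistic fit, normalized to unstimulated and stimulated DMSO controls.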
An IC50 of less than 1 µM was found for `CC(C)(O)c1ncc(-c2cc3c(N[C@@H](c4ccccc4F)C(F)F)c(Cl)cnc3cc2F)cn1` [Example 269, (S)-2-(5-(3-chloro-4-((2,2-difluoro-1-(2-fluorophenyl)ethyl)amino)-7-fluoroquinolin-6-yl)pyrimidin-2-yl)propan-2-ol] in this work. An IC50 of less than 1 µM was found for `CCc1ccc(-c2ccc(F)c([C@@H](C)Nc3c(Cl)cnc4ccccc34)c2)cn1` [Example 508, (R)-3-chloro-N-(1-(5-(6-ethylpyridin-3-yl)-2-fluorophenyl)ethyl)quinolin-4-amine] in this work. An IC50 of less than 1 µM was found for `C[C@@H](Nc1c(Cl)cnc2ccc(-c3cnc(C(C)(C)O)nc3)cc12)c1cc(-c2cnn(C)c2)ccc1F` [Example 339, (R)-2-(5-(3-chloro-4-((1-(2-fluoro-5-(1-methyl-1H-pyrazol-4-yl)phenyl)ethyl)amino)quinolin-6-yl)pyrimidin-2-yl)propan-2-ol] in this work. An IC50 of less than 1 µM was found for `C[C@@H](Nc1c(Cl)cnc2ccc(F)cc12)c1cc(-c2cncnc2)ccc1F` [Example 544, (R)-3-chloro-6-fluoro-N-(1-(2-fluoro-5-(pyrimidin-5-yl)phenyl)ethyl)quinolin-4-amine] in this work. An IC50 of less than 1 µM was found for `CC(Nc1c(Cl)cnc2cc(F)c(-c3cnc(C(O)CN4CCC(C(=O)O)CC4)nc3)cc12)c1ccccc1F` (single isomer, unassigned) [Example 610, 1-(2-(5-(3-chloro-7-fluoro-4-((1-(2-fluorophenyl)ethyl)amino)quinolin-6-yl)pyrimidin-2-yl)-2-hydroxyethyl) piperidine-4-carboxylic acid] in this work. An IC50 of less than 1 µM was found for `CC(C)(O)c1ncc(-c2ccc3ncc(Cl)c(NC(c4ccccc4F)C(C)(C)O)c3c2)cn1` (racemic) [Example 49, 1-((3-chloro-6-(2-(2-hydroxypropan-2-yl)pyrimidin-5-yl)quinolin-4-yl)amino)-1-(2-fluorophenyl)-2-methylpropan-2-ol] in this work. An IC50 of 1 to 10 µM was found for `C[C@H](Nc1c(Cl)cnc2ccc(-c3cnc(C(C)(C)O)nc3)cc12)[C@H]1CCCN(C(N)=O)C1` [Example 103, (S)-3-((S)-1-((3-chloro-6-(2-(2-hydroxypropan-2-yl)pyrimidin-5-yl)quinolin-4-yl)amino)ethyl)piperidine-1-carboxamide] in this work. An IC50 of less than 1 µM was found for `C[C@@H](Nc1c(Cl)cnc2ccccc12)c1cc(-c2ccc(N(C)C)nc2)ccc1F` [Example 506, (R)-3-chloro-N-(1-(5-(6-(dimethylamino)pyridin-3-yl)-2-fluorophenyl)ethyl) quinolin-4-amine] in this work. An IC50 of 10 to 25 µM was found for `CC(C)(O)c1ncc(-c2ccc3ncc(Cl)c(NCc4ccc(Br)cc4-n4cccn4)c3c2)cn1` [Example 56, 2-(5-(4-((4-bromo-2-(1H-pyrazol-1-yl)benzyl)amino)-3-chloroquinolin-6-yl)pyrimidin-2-yl)propan-2-ol] in this work. An IC50 of less than 1 µM was found for `Cc1nc2ccccc2c(N[C@H](C)c2cc(-c3cn[nH]c3)ccc2F)c1Cl` [Example 533, (R)-3-chloro-N-(1-(2-fluoro-5-(1H-pyrazol-4-yl)phenyl)ethyl)-2-methylquinolin-4-amine] in this work. An IC50 of less than 1 µM was found for `CCC(Nc1c(Cl)cnc2ccc(-c3cnc(N4CCNC(=O)C4)nc3)cc12)c1nc(C(N)=O)ccc1F` (racemic) [Example 23, 6-(1-((3-chloro-6-(2-(3-oxopiperazin-1-yl)pyrimidin-5-yl)quinolin-4-yl)amino)propyl)-5-fluoropicolinamide] in this work. An IC50 of less than 1 µM was found for `C[C@@H](Nc1c(Cl)cnc2ccc(-c3cnc(N4CCN(CC(=O)NS(C)(=O)=O)CC4)nc3)cc12)c1ccccc1F` [Example 91, (R)-2-(4-(5-(3-chloro-4-((1-(2-fluorophenyl)ethyl)amino)quinolin-6-yl)pyrimidin-2-yl)piperazin-1-yl)-N-(methylsulfonyl)acetamide] in this work. An IC50 of less than 1 µM was found for `Cc1nc2ccc(-c3cnc(C(C)(C)O)nc3)cc2c(N[C@H](C)c2cc(C3=CCCC3)ccc2F)c1Cl` [Example 333, (R)-2-(5-(3-chloro-4-((1-(5-(cyclopent-1-en-1-yl)-2-fluorophenyl)ethyl)amino)-2-methylquinolin-6-yl)pyrimidin-2-yl)propan-2-ol] in this work. An IC50 of 1 to 10 µM was found for `Cc1nc2cc(F)c(-c3cnc(C(C)(C)O)nc3)nc2c(N[C@H](C)c2cc(C(O)CO)ccc2F)c1Cl` (stereo partly drawn) [Example 570, 1-(3-((R)-1-((3-chloro-7-fluoro-6-(2-(2-hydroxypropan-2-yl)pyrimidin-5-yl)-2-methyl-1,5-naphthyridin-4-yl)amino)ethyl)-4-fluorophenyl)ethane-1,2-diol] in this work. An IC50 of less than 1 µM was found for `CC(O)C(=O)N1CCN(c2ncc(-c3cc4c(NC(C)c5ccccc5F)c(Cl)cnc4cc3F)cn2)CC1` (single isomer, unassigned) [Example 603, 1-(4-(5-(3-chloro-7-fluoro-4-((1-(2-fluorophenyl)ethyl)amino)quinolin-6-yl)pyrimidin-2-yl)piperazin-1-yl)-2-hydroxypropan-1-one] in this work. An IC50 of less than 1 µM was found for `CC(Nc1c(Cl)cnc2ccc(-c3ccc(C(C)(C)O)cc3)cc12)c1ccsc1` (racemic) [Example 196, 2-(4-(3-chloro-4-((1-(thiophen-3-yl)ethyl)amino)quinolin-6-yl)phenyl)propan-2-ol] in this work. An IC50 of 1 to 10 µM was found for `CC(Nc1c(Cl)cnc2cc(F)c(-c3cnc(C(O)CN4CCOCC4)cn3)cc12)c1ccccc1F` (stereo not drawn) [Example 274, 1-(5-(3-chloro-7-fluoro-4-((1-(2-fluorophenyl)ethyl)amino)quinolin-6-yl)pyrazin-2-yl)-2-morpholinoethan-1-ol] in this work. An IC50 of less than 1 µM was found for `CC(Nc1c(Cl)cnc2cc(F)c(-c3cnc(N4C[C@H]5CC[C@@H](C4)C5C(=O)O)nc3)cc12)c1ccccc1F` (single isomer, unassigned) [Example 611] in this work. An IC50 of less than 1 µM was found for `CC(Nc1c(Cl)cnc2ccc(-c3ccc(C(C)(C)O)cc3)cc12)c1ncccc1F` (racemic) [Example 170, 2-(4-(3-chloro-4-((1-(3-fluoropyridin-2-yl)ethyl)amino)quinolin-6-yl)phenyl) propan-2-ol] in this work. An IC50 of less than 1 µM was found for `C[C@@H](Nc1c(Cl)cnc2ccc(-c3ccc(N4CCN[C@H](CO)C4)nc3)cc12)c1ccccc1F` [Example 84, ((S)-4-(5-(3-chloro-4-(((R)-1-(2-fluorophenyl)ethyl)amino)quinolin-6-yl)pyridin-2-yl)piperazin-2-yl)methanol] in this work. An IC50 of less than 1 µM was found for `C[C@@H](Nc1c(Cl)cnc2ccc(-c3cnc(C(C)(C)O)nc3)cc12)c1cc(C2NC(=O)NC2=O)ccc1F` (single isomer, unassigned) [Example 422] in this work. An IC50 of less than 1 µM was found for `Cc1nc2ccc(-c3cnc(C(C)(C)O)nc3)cc2c(N[C@H](C)c2cccc(OCCO)c2)c1Cl` [Example 437, (R)-2-(5-(3-chloro-4-((1-(3-(2-hydroxyethoxy)phenyl)ethyl)amino)-2-methylquinolin-6-yl)pyrimidin-2-yl)propan-2-ol] in this work. An IC50 of less than 1 µM was found for `CCN(Cc1c(Cl)cnc2ccc(-c3cnc(C(C)(C)O)nc3)cc12)c1ccccc1F` [Example 68, 2-(5-(3-chloro-4-((ethyl(2-fluorophenyl)amino)methyl)quinolin-6-yl)pyrimidin-2-yl)propan-2-ol] in this work. An IC50 of less than 1 µM was found for `CC(C)(O)CNc1ncc(-c2ccc3ncc(Cl)c(N[C@@H](c4ccccc4F)C(F)F)c3c2)cn1` [Example 80, (S)-1-((5-(3-chloro-4-((2,2-difluoro-1-(2-fluorophenyl)ethyl)amino)quinolin-6-yl)pyrimidin-2-yl)amino)-2-methylpropan-2-ol] in this work.

From patent US10865191B2, “Heterocyclic compounds useful as modulators of TNF alpha” (BRISTOL-MYERS SQUIBB COMPANY, priority 2015, dated 2020)
